The source of these data is PubChem BioAssay (NCI).

What all share (assay): NCI tumour cell line growth inhibition, 48 h
For assay [1], the system named is RPMI-8226 leukemia.
Assay [2] deals with MALME-3M melanoma.
Assay [3] relates to NCI-H23 lung.
Assay [4] relates to MDA-MB-435.
The test system of assay [5] is A498 renal.
Assay [6] relates to A549 NSCLC.
Assay [7] relates to HCT-15 colon.
Assay [8] relates to TK-10 renal.
The test system of assay [9] is NCI-H522 lung.
Assay [10] deals with SNB-19 CNS.

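All cell lines were grown in 96-well plates and treated with compound for 48 hours. GI50 is the concentration that inhibits growth by half. TGI denotes the concentration required for complete inhibition of growth.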

As for `COc1ccc(Sc2[nH]c(C=O)c3ccccc23)cc1`, the GI50 is 7.13 µM in assay [1]; 14.2 µM in assay [2]; 14.3 µM in [3]; 2.68 µM in assay [4]; 3.44 µM in assay [5]; 13.3 µM in [6]. For the same molecule, the GI50 was 11.6 µM in [7], 10.6 µM in assay [8], 14.3 µM in [9] and 4.78 µM in assay [10]. In addition, the TGI in assay [1] was 26 µM; in assay [2], 38.8 µM; in assay [3] it was 32.3 µM; in [4], 11.5 µM; in [5] it was 23.5 µM; in assay [6] it was above 100 µM. Besides, the TGI in assay [7] was 24.4 µM; in assay [8] it was 45.1 µM; in assay [9], 31.8 µM; in [10] it was 18.5 µM.
Take `CC1(C)C(=O)/C=C\C(=O)C(C)(C)C2=CC=C(O2)C(C)(C)C(=O)C(Br)C(Br)C(=O)C(C)(C)C2=CC=C1O2` (centres undefined): the TGI in assay [1] is 9.56 µM; in assay [2], above 100 µM; in [3], above 100 µM; in assay [4] it was above 100 µM; in assay [5] it was above 100 µM; in [6], above 100 µM. Moreover, the TGI in assay [7] is above 100 µM; in [8] it was above 100 µM; in [9], 59.6 µM; in assay [10], above 100 µM.
On to `CCCCCSc1ccc2nc(NC(=O)OCC)sc2c1`, for which the GI50 was 1.04 µM in assay [1]; 0.514 µM in [2]; 1.15 µM in [3]; 0.194 µM in assay [4]; 1.22 µM in [5]; 2.37 µM in assay [6]. Moreover, the GI50 in assay [7] was 0.384 µM; in [8], 2.25 µM; in [9], 0.245 µM; in assay [10], 0.778 µM. Also, the TGI in [1] is above 100 µM; in assay [2], above 100 µM; in assay [3], above 100 µM; in [4] it was 0.763 µM; in [5], 7.88 µM; in [6] it was above 100 µM. The TGI in [7] was above 100 µM; in assay [8] it was 52.8 µM; in assay [9] it was 0.865 µM; in assay [10] it was above 100 µM.
On to `COc1ccc(C)c2sc(N(Cc3cccnc3)C(=O)c3ccc(C#N)cc3)nc12`, for which the GI50 in assay [1] was 26.1 µM; in assay [2], 52.1 µM; in [3] it was 43.5 µM; in assay [4] it was 35.9 µM; in [5] it was 2.21 µM; in assay [6], 43.6 µM. In addition, the GI50 in [7] was 30.5 µM; in assay [8], 58.4 µM; in [9], 29.7 µM; in assay [10], 94.7 µM. For the same molecule, the TGI in assay [1] is above 100 µM; in assay [2] it was above 100 µM; in assay [3], above 100 µM; in [4], above 100 µM; in assay [5], 95.5 µM; in assay [6] it was above 100 µM. Moreover, the TGI in [7], in [8], in [9] and in assay [10] was above 100 µM each time.
For `COc1cc(OC)c(C(=O)/C=C/c2ccc(C#N)cc2)c(OC)c1`, the GI50 is 1.29 µM in [1]; 2.23 µM in assay [2]; 1.57 µM in assay [3]; 1.32 µM in assay [4]; 1.33 µM in assay [5]; 1.85 µM in assay [6]. In addition, the GI50 in assay [7] was 1.05 µM; in assay [8] it was 1.71 µM; in assay [9], 1.04 µM; in [10], 1.84 µM. The TGI in [1] is 4.92 µM; in assay [2], 10.3 µM; in [3], 11.6 µM; in assay [4], 6.69 µM; in assay [5] it was 3.95 µM; in [6] it was above 50 µM. For the same molecule, the TGI in assay [7] was 4.19 µM; in assay [8] it was 24 µM; in assay [9] it was 2.92 µM; in assay [10] it was 6.87 µM.
Turning to `O=C1OC2(c3ccc(O)cc3Oc3cc(O)ccc32)c2cccc3cccc1c23`, the GI50 in assay [1] is 21.5 µM; in assay [2], 20.5 µM; in [3], 20 µM; in [4], 19.1 µM; in assay [5], 24.8 µM; in [6], 19.7 µM. In addition, the GI50 in assay [7] was 19.2 µM; in assay [8], 27.4 µM; in assay [9], 17.5 µM; in assay [10], 17.5 µM. Further, the TGI in [1] amounted to 56.3 µM; in [2], 54.7 µM; in [3], 49.9 µM; in assay [4] it was 38 µM; in assay [5], 70.1 µM; in assay [6] it was 39.8 µM. Moreover, the TGI in assay [7] turned out to be 52.6 µM; in [8], 58.1 µM; in assay [9], 43.7 µM; in [10], 34.1 µM.
`COc1cc(-n2cc(-c3ccc(Cl)cc3)n(-c3ccccc3)c2=O)cc(OC)c1OC`: the GI50 in assay [1] was 30.6 µM; in assay [2], 21.2 µM; in assay [3] it was 35.1 µM; in assay [4], 18.7 µM; in [5], 15.1 µM; in assay [6] it was 19.3 µM. The GI50 in assay [7] was 8.54 µM; in assay [8] it was 35.5 µM; in assay [9], 18.3 µM; in [10] it was 36.7 µM. Also, the TGI was above 100 µM in assay [1]; 75.2 µM in assay [2]; above 100 µM in [3]; above 86.3 µM in assay [4]; 74.5 µM in [5]; above 100 µM in assay [6]. Further, the TGI is above 100 µM in assay [7], above 100 µM in assay [8], above 76 µM in [9] and above 100 µM in assay [10].
On to `NC(=O)c1cn(C2CC(O)C(CO)O2)c2ncnc(N)c12` (centres undefined), for which the GI50 in assay [1] was 27.7 µM; in assay [2], 0.763 µM; in assay [3] it was 2.5 µM; in [4], 2.42 µM; in assay [5], 1.97 µM; in assay [6] it was 5.2 µM. In addition, the GI50 in [7] is 3.89 µM; in assay [8], 1.96 µM; in assay [9], 4.27 µM; in [10], 7 µM. Besides, the TGI in assay [1] is above 100 µM; in [3], 18.8 µM; in [4], above 100 µM; in [5] it was 7.93 µM; in [6] it was 41.1 µM; in assay [7], 55.2 µM. The TGI came to 19.5 µM in assay [8], 16.2 µM in [9] and 45.5 µM in [10].
